Data as given in publication PMC7822819, “Discovery of a new class of integrin antibodies for fibrosis” (Scientific Reports, 2021).
Where two headings read alike, the source gives them in different places.

What was measured:
human αvβ6 = human αvβ6 (Homo sapiens, UniProt P06756+P18564); assay: Latent TGFβ activation assay (TMLC / CHOK1-integrin co-culture, PAI-1 luciferase); assay type: cell-based; parameters: expressed in transfected cells; settings: in words
Description: (§1) Transfected mink lung epithelial cell (TMLC) cell line containing the TGFβ responsive PAI-1 promoter driving luciferase expression[29] and the CHO-K1 human and mouse αvβx integrin cell lines were grown under optimized growth conditions to 90% confluency. TMLC cells were trypsinized and plated at 25,000 cells/well in 50 μL in Costar clear bottom white walled plates. In a separate plate, 25 μL of serially diluted antibodies at 4X concentration were added to wells containing 25 μL of either 25,000 cells of human or mouse αvβx cells. After a brief mixing, the 50 μL mixture was transferred to the TMLC cell plates for a total volume of 100 μL and incubated at 37 °C for 16 h. 100 μL of ONE-Glo kit (#PRE6120) was added to each well and read after 3–5 min on the Envision plate reader.

mouse αvβ1 [1] = molecular target: T1, mouse αvβ1 (Mus musculus, UniProt P09055+P43406); assay: as above; assay type: cell-based; parameters: expressed in transfected cells; settings: in words
Description: as §1
Target sequence in this assay (P43406 31-1044): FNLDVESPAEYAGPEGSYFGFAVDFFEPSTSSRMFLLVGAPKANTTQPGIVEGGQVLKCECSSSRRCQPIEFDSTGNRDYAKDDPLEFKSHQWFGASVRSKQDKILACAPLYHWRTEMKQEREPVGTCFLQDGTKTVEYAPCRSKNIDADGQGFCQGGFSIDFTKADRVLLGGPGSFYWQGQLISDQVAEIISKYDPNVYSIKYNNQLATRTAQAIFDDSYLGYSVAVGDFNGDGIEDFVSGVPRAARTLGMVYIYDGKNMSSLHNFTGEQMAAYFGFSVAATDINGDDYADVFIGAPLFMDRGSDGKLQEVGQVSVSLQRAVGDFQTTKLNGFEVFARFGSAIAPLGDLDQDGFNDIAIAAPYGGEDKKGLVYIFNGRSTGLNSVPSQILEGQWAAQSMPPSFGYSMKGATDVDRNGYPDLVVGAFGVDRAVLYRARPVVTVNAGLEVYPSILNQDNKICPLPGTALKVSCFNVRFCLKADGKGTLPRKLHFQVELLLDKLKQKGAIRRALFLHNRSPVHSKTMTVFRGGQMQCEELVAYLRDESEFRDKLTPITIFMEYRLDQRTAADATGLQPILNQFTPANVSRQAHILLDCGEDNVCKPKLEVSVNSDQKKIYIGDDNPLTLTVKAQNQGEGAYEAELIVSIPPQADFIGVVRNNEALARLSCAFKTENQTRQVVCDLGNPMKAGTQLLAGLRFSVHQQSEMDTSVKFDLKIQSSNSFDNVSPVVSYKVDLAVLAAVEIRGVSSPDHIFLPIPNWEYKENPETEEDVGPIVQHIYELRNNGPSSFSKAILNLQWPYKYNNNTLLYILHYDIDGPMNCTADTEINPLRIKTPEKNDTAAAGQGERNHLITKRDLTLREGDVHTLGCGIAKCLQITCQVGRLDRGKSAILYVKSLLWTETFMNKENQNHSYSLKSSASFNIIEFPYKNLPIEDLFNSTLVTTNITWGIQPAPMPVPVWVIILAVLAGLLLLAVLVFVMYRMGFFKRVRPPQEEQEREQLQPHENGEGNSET
Target sequence in this assay (P09055 21-798): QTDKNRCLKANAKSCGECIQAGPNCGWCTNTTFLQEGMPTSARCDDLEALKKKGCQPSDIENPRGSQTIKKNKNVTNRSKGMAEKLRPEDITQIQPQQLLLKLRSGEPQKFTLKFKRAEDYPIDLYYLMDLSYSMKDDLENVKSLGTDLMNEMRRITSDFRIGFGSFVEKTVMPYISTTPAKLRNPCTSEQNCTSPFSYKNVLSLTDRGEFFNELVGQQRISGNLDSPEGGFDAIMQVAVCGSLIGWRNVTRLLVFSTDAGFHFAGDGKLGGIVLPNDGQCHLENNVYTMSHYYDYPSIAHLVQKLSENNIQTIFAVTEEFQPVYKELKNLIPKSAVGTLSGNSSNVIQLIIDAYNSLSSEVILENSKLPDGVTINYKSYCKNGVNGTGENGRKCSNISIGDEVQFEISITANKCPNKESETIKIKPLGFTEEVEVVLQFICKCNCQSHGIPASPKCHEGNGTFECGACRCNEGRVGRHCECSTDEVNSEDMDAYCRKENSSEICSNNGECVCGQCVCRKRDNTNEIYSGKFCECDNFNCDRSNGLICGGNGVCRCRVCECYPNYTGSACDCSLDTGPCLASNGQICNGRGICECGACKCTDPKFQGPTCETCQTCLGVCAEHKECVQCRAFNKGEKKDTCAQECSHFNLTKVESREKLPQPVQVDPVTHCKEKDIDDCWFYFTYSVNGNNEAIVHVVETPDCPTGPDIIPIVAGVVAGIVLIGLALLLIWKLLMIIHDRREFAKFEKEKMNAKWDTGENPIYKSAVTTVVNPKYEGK

human αvβ8 = human αvβ8 (Homo sapiens, UniProt P06756+P26012); assay: as above; assay type: cell-based; parameters: expressed in transfected cells; settings: in words
Description: as §1

human αvβ1 [2] = molecular target: T2, human αvβ1 (Homo sapiens, UniProt P05556+P06756); assay: as above; assay type: cell-based; parameters: expressed in transfected cells; settings: in words
Description: as §1

mouse αvβ1 [3] = molecular target: T1, mouse αvβ1; assay: AlphaLISA integrin-ligand binding assay; assay type: biochemical; parameters: mαV 1 988; m β1 1 728; made in house; host or cells: Expi293; settings: Fig. 4B; read-out: IC50 Mouse integrin AlphaLISA assays: mαvβ1
Description: (§2) In the AlphaLISA integrin assays, we used a HEPES based buffer (25 mM HEPES pH 7.4, 137 mM NaCl, 1 mM MgCl2, 1 mM MnCl2, 2 mM CaCl2, 2.7 mM KCl, and 0.05% Tween-20). Optimal assay conditions were determined with a titration of the reagents for signal noise ratio (S/N), linear range, etc. For the respective integrins, we used the final concentrations described in Supplemental Table S3. Briefly, the testing antibody (8 μL) was added as a 4x (of Final testing concentration) solution in the HEPES buffer described previously into a 384w AlphaPlate (Perkin Elmer #6005350). Then the integrin and ligand were added sequentially as 8x (4 μL each). Plates were sealed and incubated at room temperature for 2 h. Then 4 × acceptor bead solution (8 μL) was added, and the plates were resealed and incubated at RT for 1 h. Finally, 4 × (8 μL) donor beads solution was added in a darkened room and incubated for 45 min at room temperature. Plates were read on the Envision (Perkin Elmer) in AlphaScreen mode within 3 h of donor bead addition.
(§3) Supplemental Table S3. integrin AlphaLIS A assay reagents and conditions Human A l phal i sa Inte gri n A ssays: Fi nal Condi ti ons […]
(§4) ( batch de pe nde nt) anti body A l phaLi sa A cce ptor havb1 1. 4 nM 1. 0 nMα - Fi brone cti n human Fi brone cti n n/a A cce ptor be ads/ Pe rki n 10. 0 ug/ m 10. 0 ug/ m […]
(§5) havb3 3. 0 nM 10. […]

mouse αvβ6 = molecular target: T3, mouse αvβ6 (Mus musculus, UniProt P43406+Q9Z0T9); assay: Latent TGFβ activation assay (TMLC / CHOK1-integrin co-culture, PAI-1 luciferase); assay type: cell-based; settings: in words
T3 construct: expressed in transfected cells
Description: as §1

CHOK1 parental cells = assay: Cell adhesion assay (Epic) on fibronectin; assay type: cell-based, hamster; settings: in words
[4] = parameters: method as in PMID 15687321; settings: humans; cited from earlier work
human αvβ1 [5] = molecular target: T2, human αvβ1; assay: AlphaLISA integrin-ligand binding assay; assay type: biochemical; parameters: hαV 1 992; hβ1 1 728; made in house; host or cells: Expi293
Description: as §2, §3, §4, §5
Target sequence in this assay (P06756 31-992): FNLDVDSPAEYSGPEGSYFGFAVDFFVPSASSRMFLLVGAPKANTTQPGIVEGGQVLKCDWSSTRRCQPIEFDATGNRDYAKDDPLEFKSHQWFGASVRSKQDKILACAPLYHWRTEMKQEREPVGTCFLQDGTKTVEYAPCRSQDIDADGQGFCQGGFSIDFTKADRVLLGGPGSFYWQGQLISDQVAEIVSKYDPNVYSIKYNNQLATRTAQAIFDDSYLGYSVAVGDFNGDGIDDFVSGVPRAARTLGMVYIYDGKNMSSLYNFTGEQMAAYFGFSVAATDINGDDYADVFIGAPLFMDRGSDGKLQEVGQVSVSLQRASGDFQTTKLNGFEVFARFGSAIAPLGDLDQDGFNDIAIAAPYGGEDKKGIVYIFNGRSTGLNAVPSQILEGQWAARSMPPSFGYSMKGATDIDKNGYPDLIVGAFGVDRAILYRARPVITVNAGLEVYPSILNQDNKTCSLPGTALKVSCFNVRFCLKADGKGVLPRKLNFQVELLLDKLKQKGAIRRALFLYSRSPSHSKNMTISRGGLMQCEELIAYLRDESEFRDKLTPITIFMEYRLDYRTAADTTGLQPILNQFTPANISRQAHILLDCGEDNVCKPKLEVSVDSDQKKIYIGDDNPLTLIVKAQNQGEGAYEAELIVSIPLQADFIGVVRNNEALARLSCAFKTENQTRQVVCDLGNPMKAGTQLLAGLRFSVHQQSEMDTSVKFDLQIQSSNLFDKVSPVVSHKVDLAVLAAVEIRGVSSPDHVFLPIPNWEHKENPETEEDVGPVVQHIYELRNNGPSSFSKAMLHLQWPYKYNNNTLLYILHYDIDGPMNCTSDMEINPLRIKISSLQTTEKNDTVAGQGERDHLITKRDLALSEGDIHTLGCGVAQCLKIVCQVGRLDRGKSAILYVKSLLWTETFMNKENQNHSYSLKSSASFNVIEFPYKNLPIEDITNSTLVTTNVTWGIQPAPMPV
Target sequence in this assay (P05556 21-728): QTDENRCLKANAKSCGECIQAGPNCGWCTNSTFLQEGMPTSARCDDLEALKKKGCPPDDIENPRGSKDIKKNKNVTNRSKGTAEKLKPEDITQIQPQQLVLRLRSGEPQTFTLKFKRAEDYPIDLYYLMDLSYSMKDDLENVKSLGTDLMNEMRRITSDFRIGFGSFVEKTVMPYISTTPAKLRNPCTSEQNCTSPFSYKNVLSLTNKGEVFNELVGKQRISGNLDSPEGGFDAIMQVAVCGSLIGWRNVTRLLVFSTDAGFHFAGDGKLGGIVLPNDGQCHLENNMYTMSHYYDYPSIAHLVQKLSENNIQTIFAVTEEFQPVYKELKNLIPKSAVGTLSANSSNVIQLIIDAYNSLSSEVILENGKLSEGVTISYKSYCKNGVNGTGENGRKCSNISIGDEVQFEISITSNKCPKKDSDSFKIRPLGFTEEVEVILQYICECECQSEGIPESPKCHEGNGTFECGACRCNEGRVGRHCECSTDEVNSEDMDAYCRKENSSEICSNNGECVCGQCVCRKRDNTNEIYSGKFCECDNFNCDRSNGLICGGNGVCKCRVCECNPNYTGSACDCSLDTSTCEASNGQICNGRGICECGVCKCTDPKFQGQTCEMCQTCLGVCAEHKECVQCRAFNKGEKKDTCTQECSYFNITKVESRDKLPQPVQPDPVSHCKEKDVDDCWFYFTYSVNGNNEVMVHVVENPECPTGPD

T3 sequence (P43406 31-1044): as the sequence (P43406 31-1044) above
T3 sequence (Q9Z0T9 22-787): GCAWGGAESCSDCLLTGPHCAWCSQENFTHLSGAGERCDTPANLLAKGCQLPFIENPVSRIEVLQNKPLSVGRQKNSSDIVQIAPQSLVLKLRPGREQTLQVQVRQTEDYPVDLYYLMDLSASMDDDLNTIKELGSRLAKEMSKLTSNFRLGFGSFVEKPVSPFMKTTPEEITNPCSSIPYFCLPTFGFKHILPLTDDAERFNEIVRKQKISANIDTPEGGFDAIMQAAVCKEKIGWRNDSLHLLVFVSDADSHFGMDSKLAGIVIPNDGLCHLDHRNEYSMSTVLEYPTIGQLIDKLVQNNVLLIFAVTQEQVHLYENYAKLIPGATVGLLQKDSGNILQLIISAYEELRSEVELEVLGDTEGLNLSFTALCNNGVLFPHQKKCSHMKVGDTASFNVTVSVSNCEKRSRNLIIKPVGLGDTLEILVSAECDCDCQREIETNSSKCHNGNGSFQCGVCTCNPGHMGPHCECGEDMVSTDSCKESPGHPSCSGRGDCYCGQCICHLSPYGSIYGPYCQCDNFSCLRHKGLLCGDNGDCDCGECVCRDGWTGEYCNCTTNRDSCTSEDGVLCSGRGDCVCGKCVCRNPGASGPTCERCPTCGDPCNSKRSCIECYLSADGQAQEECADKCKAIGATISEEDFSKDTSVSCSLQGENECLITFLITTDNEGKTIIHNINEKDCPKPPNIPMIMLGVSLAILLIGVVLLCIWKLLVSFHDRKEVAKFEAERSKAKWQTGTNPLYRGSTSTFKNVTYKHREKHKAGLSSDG

## COc1ccc(C(CC(=O)O)N2CCN(CCCc3ccc4c(n3)NCCC4)C2=O)cn1 (stereo not shown) [MK-0429]
Human αvβ6
  Inhibition of latent TGFβ activation, human αvβ6 co-culture: strong inhibitory effect
Mouse αvβ1 [1]
  Inhibition of latent TGFβ activation, mouse αvβ1 co-culture: strong inhibitory effect
Human αvβ8
  Inhibition of latent TGFβ activation, human αvβ8 co-culture: strong inhibitory effect
Human αvβ1 [2]
  Inhibition of latent TGFβ activation, human αvβ1 co-culture: strong inhibitory effect
Mouse αvβ1 [3]
  IC50: 1.3 nM
Mouse αvβ6
  Inhibition of latent TGFβ activation, mouse αvβ6 co-culture: strong inhibitory effect
CHOK1 parental cells
  Effect on cell adhesion, CHOK1 parental cells: little inhibitory activity
[4]
  Oral bioavailability: good
Human αvβ1 [5]; Fig. 3D, assay optimisation, read-out: IC50 human αvβ1 AlphaLISA
  IC50: 0.46 nM
Human αvβ1 [5]; Fig. 4B, read-out: IC50 Human integrin AlphaLISA assays: hαvβ1
  IC50: 1 nM
